Results taken from patent publication US8916516B2, “Treatment of fungal and/or protist infections” (AI2 Limited, priority 2005, dated 2014).

Assays:
Type in all cases: cell-based
Fusarium solani 2 (FS2) = assay: Antifungal MIC (Example 4); settings: Fusarium solani 2; peptides; Tables 4 and 5
Description: (§1) The inventor expanded the work conducted in Example 1 by testing an expanded library of peptides derived from either apolipoprotein B or apolipoprotein E in order to further evaluate polypeptides in accordance with the invention. These experiments were conducted using the following fungal species:
(§2) FS1-FS4 were obtained from Bristol PHLS (British Public Health Laboratory Service UK). Aspergillus fumigatus 293 is publicly available as culture collection strain NCPF7367 (National Collection of Pathogenic Fungi Public Health Laboratory, Mycological Reference Laboratory Myrtle Road, Kingsdown, Bristol BS2 8EL) The Candida albicans was a clinical isolate obtained by standard means.
(§3) The methods used to determine, the IC50 values for each peptide were as described in the Example 1.

Fusarium solani 4 (FS4) = assay: Antifungal MIC (Example 4); settings: Fusarium solani 4; peptides; Tables 4 and 5
Description: as §1, §2, §3

Fusarium solani 3 (FS3) = assay: Antifungal MIC (Example 4); settings: Fusarium solani 3; peptides; Tables 4 and 5
Description: as §1, §2, §3

[1] = system: Candida albicans (CA), clinical isolate; assay: Antifungal MIC (Example 4); settings: peptides, Tables 4 and 5
Description: as §1, §2, §3

Fusarium solani 1 (FS1) = assay: Antifungal MIC (Example 4); settings: Fusarium solani 1; peptides; Tables 4 and 5
Description: as §1, §2, §3

[2] = system: Aspergillus fumigatus AF293 (NCPF7367); assay: microbe, parasite or virus in culture; settings: Aspergillus fumigatus 293; peptides; Tables 4 and 5
Description: (§4) Four compounds were supplied as an aqueous solution, 400 μM. Serial dilutions of each test peptide were prepared in addition to a control, which was a conventional antifungal drug, Amphoteracin B. Amphteracin B is obtained from Invitrogen or Melford laboratories.
(§5) Initial testing of the peptides was carried out against the following organisms: • 1) Aspergillus fumigatus AF293 (culture collection strain NCPF7367) • 2) Candida albicans 6862 (clinical isolate) • 3) Fusarium spp 5889 (clinical isolate) • 4) Fusarium spp 6507 (clinical isolate) • 5) Aspergillus terreus (clinical isolate) • 6) Aspergillus niger (clinical isolate) • 7) Staphylococcus aureus (Oxford strain, which is a standard reference strain used in MIC testing)
The bacterium S. aureus was tested with each of the peptides as a control. A suspension of each organism in an appropriate growth medium was added to the, dilutions of the peptides in order to give concentration ranges of 40 μM to 0.04 μM for each of the peptides, and 64-0.025 μg/ml for amphotericin B. Fungal strains were tested in RPMI media. RPMI is standard Roswell Park Memorial Institute medium (Morton, H. C., (1970) A survey of Commercially Available Tissue Culture Media. In Vitro 6: 89-108).
The final inoculum for S. aureus was 5×10^4 cfu/ml. The final inoculum for C. albicans was 2×10^3 cfu/ml. The final inoculum for Aspergillus fumigatus and for Fusarium spp was 2×10^4 cfu/ml.
(§6) Candida and S. aureus plates were read after 24 hrs incubation and the Aspergillus and Fusarium strains read after 48 hrs. The MIC was taken as the lowest drug or compound concentration that caused >80% reduction in growth compared with a drug free control.
Aspergillus fumigatus 293 (AF); and
FS1-FS4 were obtained from Bristol PHLS (British Public Health Laboratory Service UK). Aspergillus fumigatus 293 is publicly available as culture collection strain NCPF7367 (National Collection of Pathogenic Fungi Public Health Laboratory, Mycological Reference Laboratory Myrtle Road, Kingsdown, Bristol BS2 8EL) The Candida albicans was a clinical isolate obtained by standard means. […]

fungi = settings: overall statement on the fungi tested
Description: as §4, §5
The bacterium S. aureus was tested with each of the peptides as a control. […] RPMI is standard Roswell Park Memorial Institute medium (Morton, H. C., (1970) A survey of Commercially Available Tissue Culture Media. In Vitro 6: 89-108).
as §6, §3

Row | Sequence | MIC values (>80% reduction) FS2 (Fusarium solani 2 (FS2)) | MIC values (>80% reduction) FS4 (Fusarium solani 4 (FS4)) | MIC values (>80% reduction) FS3 (Fusarium solani 3 (FS3)) | MIC values (>80% reduction) CA [1] | MIC values (>80% reduction) FS1 (Fusarium solani 1 (FS1)) | MIC values (>80% reduction) AF [2] | antifungal activity (in words) (fungi)
1 | ARKARKRAAARKARKRAA (Artificial polypeptide designated MU 2) [MU_2, 77] | >40 µM | >40 µM | >40 µM | >40 µM | >40 µM | >40 µM | 
2 | DRKDRKRDDDRKDRKRDD (Artificial polypeptide designated MU 3) [MU_3, 78] | >40 µM | >40 µM | >40 µM | >40 µM | >40 µM | >40 µM | 
3 | ERKERKREEERKERKREE (Artificial polypeptide designated MU 1) [MU_1, 76] | >40 µM | >40 µM | >40 µM | >40 µM | >40 µM | >40 µM | 
4 | GRKGRKRGGGRKGRKRGG (Artificial polypeptide designated MU 17) [MU_17, 84] | >40 µM | >40 µM | >40 µM | >40 µM | >40 µM | >40 µM | 
5 | HRKHRKRHHHRKHRKRHH (Artificial polypeptide designated MU 19) [MU_19] | >40 µM | 10 µM | 40 µM | >40 µM | 20 µM | >40 µM | 
6 | IRKIRKRIIIRKIRKRII (Artficial polypeptide designated MU 8) [MU_8] | 20 µM | 40 µM | 20 µM | >40 µM | 40 µM | >40 µM | 
7 | LRKLRKRLL (listed as Homo sapiens) [apoE141-149, monomeric 9-mer of apolipoprotein E, reference compound] |  |  |  |  |  |  | no detectable antifungal activity
8 | LRKLRKRLLLRKLRKRWW (Artificial polypeptide designated MU 112) [MU_112, 24] | 2.5 µM | 5 µM | 2.5 µM | >40 µM | 2.5 µM | >40 µM | 
9 | LRKLRKRLLRLRKLRKRLLR (Artificial polypeptide designated MU 82) [MU_82, 21] | 2.5 µM | 10 µM | 2.5 µM | >40 µM | 2.5 µM | >40 µM | 
10 | MRKMRKRMMMRKMRKRMM (Artificial polypeptide designated MU 16) [MU_5] | 20 µM | 40 µM | 20 µM | >40 µM | 10 µM | >40 µM | 
11 | NRKNRKRNNNRKNRKRNN (Artificial polypeptide designated MU 11) [MU_11, 80] | >40 µM | >40 µM | 40 µM | >40 µM | >40 µM | >40 µM | 
12 | PRKPRKRPPPRKPRKRPP (Artificial polypeptide designated MU 20) [MU_20, 86] | >40 µM | >40 µM | >40 µM | >40 µM | >40 µM | >40 µM | 
13 | QRKQRKRQQQRKQRKRQQ (Artificial polypeptide designated MU 9) [MU_9, 79] | >40 µM | >40 µM | >40 µM | >40 µM | >40 µM | >40 µM | 
14 | RLTRKRGLK (listed as Homo sapiens) [apoB3359-3367, monomeric 9-mer of apolipoprotein B, reference compound] |  |  |  |  |  |  | no detectable antifungal activity
15 | SRKSRKRSSSRKSRKRSS (Artificial polypeptide designated MU 13) [MU_13, 81] | >40 µM | >40 µM | >40 µM | >40 µM | >40 µM | >40 µM | 
16 | TRKTRKRTTTRKTRKRTT (Artificial polypeptide designated MU 15) [MU_15, 83] | >40 µM | >40 µM | >40 µM | >40 µM | >40 µM | >40 µM | 
17 | VRKVRKRVVVRKVRKRVV (Artificial polypeptide designated MU 14) [MU_14, 82] | >40 µM | >40 µM | >40 µM | >40 µM | >40 µM | >40 µM | 
18 | WRKWRKRWWLRKLRKRLL (Artificial polypeptide designated GIN 34) | 0.6 µM | 12.5 µM | 1.25 µM | 10 µM | 1.25 µM | 40 µM | 
